Assay results: patent publication US20220033397A1, “PHARMACEUTICAL COMPOUNDS AND THEIR USE AS INHIBITORS OF UBIQUITIN SPECIFIC PROTEASE 19 (USP19)” (ALMAC DISCOVERY LIMITED, priority 2018, published 2022)

What follows are compounds tested against T1, Full-length USP19 (Homo sapiens, UniProt O94966) (assay: USP19 fluorescence polarisation (FP) homogeneous assay with Ubiquitin-Lys-TAMRA substrate). Details: 2.5 nM USP19, 30 min pre-incubation, average of at least two duplicate experiments.
T1 construct: Full-length USP19 was purchased from Boston Biochem (E-576); purchased Boston Biochem E-576
T1 sequence (O94966 1-1318): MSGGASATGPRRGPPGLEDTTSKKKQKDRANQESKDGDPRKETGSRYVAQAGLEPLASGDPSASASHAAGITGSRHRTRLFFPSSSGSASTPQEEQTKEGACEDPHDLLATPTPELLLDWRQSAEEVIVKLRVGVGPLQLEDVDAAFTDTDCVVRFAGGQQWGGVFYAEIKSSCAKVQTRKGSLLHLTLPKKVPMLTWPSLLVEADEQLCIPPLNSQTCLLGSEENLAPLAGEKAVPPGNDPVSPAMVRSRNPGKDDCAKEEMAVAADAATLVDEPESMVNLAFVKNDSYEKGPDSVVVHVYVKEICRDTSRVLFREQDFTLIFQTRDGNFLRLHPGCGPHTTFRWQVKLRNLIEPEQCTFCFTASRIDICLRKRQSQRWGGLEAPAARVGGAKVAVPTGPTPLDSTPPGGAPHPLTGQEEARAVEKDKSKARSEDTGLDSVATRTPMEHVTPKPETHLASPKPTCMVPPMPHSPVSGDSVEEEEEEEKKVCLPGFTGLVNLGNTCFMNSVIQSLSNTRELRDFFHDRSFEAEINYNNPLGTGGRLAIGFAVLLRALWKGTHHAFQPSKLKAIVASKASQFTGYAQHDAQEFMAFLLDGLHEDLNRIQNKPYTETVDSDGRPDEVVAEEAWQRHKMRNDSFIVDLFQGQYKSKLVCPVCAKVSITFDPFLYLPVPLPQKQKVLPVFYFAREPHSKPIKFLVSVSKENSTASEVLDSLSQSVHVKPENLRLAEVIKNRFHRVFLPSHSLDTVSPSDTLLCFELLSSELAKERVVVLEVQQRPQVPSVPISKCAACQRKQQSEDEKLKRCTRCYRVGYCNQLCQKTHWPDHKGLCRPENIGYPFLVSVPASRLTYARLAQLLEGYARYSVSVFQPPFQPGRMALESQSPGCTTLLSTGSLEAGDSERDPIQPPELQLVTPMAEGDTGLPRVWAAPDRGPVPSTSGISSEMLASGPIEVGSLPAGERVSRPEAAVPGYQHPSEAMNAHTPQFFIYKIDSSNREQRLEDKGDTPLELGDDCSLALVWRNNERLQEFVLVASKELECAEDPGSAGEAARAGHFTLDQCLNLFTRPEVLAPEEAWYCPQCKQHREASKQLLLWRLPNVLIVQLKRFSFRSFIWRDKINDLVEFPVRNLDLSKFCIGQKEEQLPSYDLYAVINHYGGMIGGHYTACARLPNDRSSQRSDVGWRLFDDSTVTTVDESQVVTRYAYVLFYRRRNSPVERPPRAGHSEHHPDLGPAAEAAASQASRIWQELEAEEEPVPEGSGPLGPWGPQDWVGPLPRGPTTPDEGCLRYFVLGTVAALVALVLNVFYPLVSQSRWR
Assay type: biochemical
Method in brief: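 Full-length USP19 preincubated 30 min at RT with inhibitor (200 μM to 2 μM series, 8–18 points) before adding 500 nM Ubiquitin-Lys-TAMRA substrate.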

`O=C(N1CC[C@@](O)(Cn2ccc(C3CC3)cc2=O)C2(CCCC2)C1)N1CCNC[C@H]1c1ccccc1` [Example 327, 4-Cyclopropyl-1-(((S)-10-hydroxy-7-((R)-2-phenylpiperazine-1-carbonyl)-7-azaspiro[4.5]decan-10-yl)methyl)pyridin-2(1H)-one] and `O=C(N1CC[C@@](O)(Cn2ccc(N3CCCC3)cc2=O)C2(CCCC2)C1)N1CCNC[C@H]1c1ccccc1` [Example 330, 1-(((S)-10-Hydroxy-7-((R)-2-phenylpiperazine-1-carbonyl)-7-azaspiro[4.5]decan-10-yl)methyl)-4-(pyrrolidin-1-yl)pyridin-2(1H)-one] cannot be ordered by IC50: < 0.5 µM for the first, < 0.5 µM for the second.

`C[C@H](CC1CCCCC1)C(=O)N1CCC(O)(CN2C(=O)COc3cccnc32)C2(CCCC2)C1` (stereo partly drawn) [Example 35, 4-((7-((R)-3-Cyclohexyl-2-methylpropanoyl)-10-hydroxy-7-azaspiro[4.5]decan-10-yl)methyl)-2H-pyrido[3,2-b][1,4]oxazin-3(4H)-one] and `C[C@H](CC1CCCCC1)C(=O)N1CCC(O)(CN2CCN(C)CC2=O)C2(CCCC2)C1` (stereo partly drawn) [Example 114, 1-((7-((R)-3-Cyclohexyl-2-methylpropanoyl)-10-hydroxy-7-azaspiro[4.5]decan-10-yl)methyl)-4-methylpiperazin-2-one] fall in the same range of IC50: 0.5 to 5 µM for the first, 0.5 to 5 µM for the second.

First: O=C1CN(C(=O)c2ccccc2)CCN1CC1(O)CCN(C(=O)NCc2ccccc2)CC12CCCC2 (centres unmarked) [Example 107, 10-((4-Benzoyl-2-oxopiperazin-1-yl)methyl)-N-benzyl-10-hydroxy-7-azaspiro[4.5]decane-7-carboxamide]
Second: N#Cc1ccc(CNC(=O)N2CC[C@@](O)(Cn3cnc(-c4ccccc4)cc3=O)C3(CCCC3)C2)cc1 [Example 215, (S)—N-(4-Cyanobenzyl)-10-hydroxy-10-((6-oxo-4-phenylpyrimidin-1(6H)-yl)methyl)-7-azaspiro[4.5]decane-7-carboxamide]
The IC50 of the first is lower: 5 to 50 µM for the first, 50 to 250 µM for the second. The first is the more potent here.

First: N[C@@H]1CCN(C(=O)N2CC[C@@](O)(Cn3cnc(-c4ccccc4)cc3=O)C3(CCCC3)C2)[C@H](c2ccccc2)C1 [Example 397, 3-(((S)-7-((2S,4R)-4-Amino-2-phenyl-piperidine-1-carbo-nyl)-10-hydroxy-7-azaspiro[4.5]decan-10-yl)methyl)-6-phenylpyrimidin-4(3H)-one]
Second: O=C(N1CCC(O)(Cn2cnc(-c3ccccc3)cc2=O)C2(CCCC2)C1)N1CCOC2CC21 (centres unmarked) [Example 243, 3-((7-(2-Oxa-5-azabicyclo[4.1.0]heptane-5-carbonyl)-10-hydroxy-7-azaspiro[4.5]decan-10-yl)methyl)-6-phenylpyrimidin-4(3H)-one]
The IC50 of the first is lower: < 0.5 µM for the first, 5 to 50 µM for the second. The first is the more potent here.

`C[C@H](CC(F)(F)F)C(=O)N1CCC(O)(Cn2cnc3c(cnn3C3CC3)c2=O)C2(CCCC2)C1` (stereo partly drawn) [Example 181, 1-Cyclopropyl-5-((10-hydroxy-7-((R)-4,4,4-trifluoro-2-methylbutanoyl)-7-azaspiro[4.5]decan-10-yl)methyl)-1,5-dihydro-4H-pyrazolo[3,4-d]pyrimidin-4-one] and `CCn1ncc2c(=O)n(CC3(O)CCN(C(=O)[C@H](C)CC(F)(F)F)CC34CCCC4)cnc21` (stereo partly drawn) [Example 141, 1-Ethyl-5-((10-hydroxy-7-((R)-4,4,4-trifluroo-2-methylbutanoyl)-7-azaspiro[4.5]decan-10-yl)methyl)-1,5-dihydro-4H-pyrazolo[3,4-d]pyrimidin-4-one] fall in the same range of IC50: 5 to 50 µM for the first, 5 to 50 µM for the second.

First: O=C(NC(C(F)(F)F)C(F)(F)F)N1CC[C@@](O)(Cn2cnc(-c3ccccc3)cc2=O)C2(CCCC2)C1 [Example 308, (S)—N-(1,1,1,3,3,3-Hexafluoropropan-2-yl)-10-hydroxy-10-((6-oxo-4-phenylpyrimidin-1(6H)-yl)methyl)-7-azaspiro[4.5]decane-7-carboxamide]
Second: O=C(N1CCC(C(F)F)CC1)N1CCC(O)(Cn2cnc(-c3ccccc3)cc2=O)C2(CCCC2)C1 (centres unmarked) [Example 241, 3-((7-(4-(Difluoromethyl)piperidine-1-carbonyl)-10-hydroxy-7-azaspiro[4.5]decan-10-yl)methyl)-6-phenylpyrimidin-4(3H)-one]
The IC50 of the first is lower: 0.5 to 5 µM for the first, 5 to 50 µM for the second. The first is the more potent here.

First: C[C@H](CC1CCCCC1)C(=O)N1CCC(O)(Cn2nc3ccccn3c2=O)C(C)(C)C1 (stereo partly drawn) [Example 51, 2-((1-((R)-3-Cyclohexyl-2-methylpropanoyl)-4-hydroxy-3,3-dimethylpiperidin-4-yl)methyl)-[1,2,4]triazolo[4,3-a]pyridin-3(2H)-one]
Second: C[C@H](CC1CCCCC1)C(=O)N1CCC(O)(CN2CC(Cc3ccccc3)CC2=O)C(C)(C)C1 (stereo partly drawn) [Example 30, 4-Benzyl-1-((1-((R)-3-cyclohexyl-2-methylpropanoyl)-4-hydroxy-3,3-dimethylpiperidin-4-yl)methyl)pyrrolidin-2-one]
The IC50 of the first is higher: 5 to 50 µM for the first, 0.5 to 5 µM for the second.

Compared with `COc1ccc2c(=O)n(CC3(O)CCN(C(=O)[C@H](C)CC(F)(F)F)CC34CCCC4)cnc2c1` (stereo partly drawn) [Example 133, 3-((10-Hydroxy-7-((R)-4,4,4-trifluoro-2-methylbutanoyl)-7-azaspiro[4.5]decan-10-yl)methyl)-7-methoxyquinazolin-4(3H)-one], `CN(Cc1ccoc1)C(=O)N1CCC(O)(Cn2cnc(-c3ccccc3)cc2=O)C2(CCCC2)C1` (centres unmarked) [Example 232, N-(Furan-3-ylmethyl)-10-hydroxy-N-methyl-10-((6-oxo-4-phenylpyrimidin-1(6H)-yl)methyl)-7-azaspiro[4.5]decane-7-carboxamide] is lower in IC50: 5 to 50 µM for the first, 0.5 to 5 µM for the second. The second is the more potent here.

First: C[C@H](CC1CCCCC1)C(=O)N1CCC(O)(Cn2cc(-c3ccccc3)c(N=S(C)(C)=O)cc2=O)C2(CCCC2)C1 (stereo partly drawn) [Example 73, 1-((7-((R)-3-Cyclohexyl-2-methylpropanoyl)-10-hydroxy-7-azaspiro[4.5]decan-10-yl)methyl)-4-((dimethyl(oxo)-λ^6-sulfaneylidene)amino)-5-phenylpyridin-2(1H)-one]
Second: CSc1ncc2c(=O)n(CC3(O)CCN(C(=O)[C@H](C)CC4CCCCC4)CC34CCCC4)n(C)c2n1 (stereo partly drawn) [Example 54, 2-((7-((R)-3-Cyclohexyl-2-methylpropanoyl)-10-hydroxy-7-azaspiro[4.5]decan-10-yl)methyl)-1-methyl-6-(methylthio)-1,2-dihydro-3H-pyrazolo[3,4-d]pyrimidin-3-one]
The IC50 of the first is higher: 0.5 to 5 µM for the first, < 0.5 µM for the second.

`COc1ccc(-c2cc(=O)n(C[C@]3(O)CCN(C(=O)N4CCNC[C@H]4c4ccccc4)CC34CCCC4)cn2)s1` [Example 345, 3-(((S)-10-Hydroxy-7-((R)-2-phenylpiperazine-1-carbonyl)-7-azaspiro[4.5]decan-10-yl)methyl)-6-(5-methoxythiophen-2-yl)pyrimidin-4(3H)-one] and `O=C(N1CC[C@@](O)(Cn2cnc(-c3ccccc3)cc2=O)C2(CCCC2)C1)N1CCNCC1c1cc(F)cc(F)c1` (mixture of isomers) [Example 380, 3-(((10S)-7-(2-(3,5-difluorophenyl)piper-azine-1-carbonyl)-10-hydroxy-7-azaspiro[4.5]decan-10-yl)methyl)-6-phenylpyrimidin-4(3H)-one] cannot be ordered by IC50: < 0.5 µM for the first, < 0.5 µM for the second.

`O=C(NCc1ccc2c(c1)COC2)N1CCC(O)(Cn2cnc(-c3ccccc3)cc2=O)C2(CCCC2)C1` (centres unmarked) [Example 260, N-((1,3-Dihydroisobenzofuran-5-yl)methyl)-10-hydroxy-10-((6-oxo-4-phenylpyrimidin-1(6H)-yl)methyl)-7-azaspiro[4.5]decane-7-carboxamide] and `O=C(N1CCC(O)(Cn2cnc(-c3ccccc3)cc2=O)C2(CCCC2)C1)N1CCC12CCOC2` (centres unmarked) [Example 236, 3-((10-Hydroxy-7-(6-oxa-1-azaspiro[3.4]octane-1-carbonyl)-7-azaspiro[4.5]decan-10-yl)methyl)-6-phenylpyrimidin-4(3H)-one] fall in the same range of IC50: 5 to 50 µM for the first, 5 to 50 µM for the second.

In the case of `O=C(N1CCC(O)(Cn2cnc3c(cnn3Cc3ccccc3)c2=O)C2(CCCC2)C1)N1CCNC[C@H]1c1ccccc1` (stereo partly drawn) [Example 172, 1-Benzyl-5-((10-hydroxy-7-((R)-2-phenylpiperazine-1-carbonyl)-7-azaspiro[4.5]decan-10-yl)methyl)-1,5-dihydro-4H-pyrazolo[3,4-d]pyrimidin-4-one], the IC50 is reported as < 0.5 µM.
